Assays:
[1] = biological target: T1, human recombinant serotonin (5-Hydroxytryptamine) 5-HT2C receptor (Homo sapiens, UniProt P28335); assay: Serotonin 5-HT2C radioligand binding ([3H]Mesulergine); conditions: compound at 0.1 μM; read-out: Percentage inhibition of ligand binding, Serotonin (0.1 μM) 5-HT2C
T1 construct: expressed in transfected cells; host or cells: CHO-K1
T1 sequence (P28335 33-458): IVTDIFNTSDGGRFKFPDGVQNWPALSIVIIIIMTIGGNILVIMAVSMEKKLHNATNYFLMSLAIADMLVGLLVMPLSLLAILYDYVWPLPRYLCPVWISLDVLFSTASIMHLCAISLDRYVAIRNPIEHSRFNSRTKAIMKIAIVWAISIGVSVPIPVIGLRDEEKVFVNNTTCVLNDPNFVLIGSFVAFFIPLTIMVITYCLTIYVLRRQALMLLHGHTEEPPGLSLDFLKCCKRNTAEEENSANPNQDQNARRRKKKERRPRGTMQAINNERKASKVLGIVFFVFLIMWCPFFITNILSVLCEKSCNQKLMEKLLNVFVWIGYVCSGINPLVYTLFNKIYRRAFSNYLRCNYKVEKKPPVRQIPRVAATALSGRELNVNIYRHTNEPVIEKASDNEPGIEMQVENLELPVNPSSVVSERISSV
Protocol: To evaluate in radioligand binding assays the activity of compounds of the invention, human recombinant serotonin (5-Hydroxytryptamine) 5-HT2C receptor expressed in Chinese hamster ovary (CHO) K1 cells (Wolf, W. et al, J. Neurochem. 69:1449, 1997) in a modified Tris-HCl buffer (50 mM Tris-HCl, pH 7.4, 0.1% Ascorbic Acid, 10 μM Pargyline) was used. Compounds of the invention were incubated with 1 nM [^3H]Mesulergine for 60 min at 25° C. Non-specific binding was estimated in the presence of 1 μM Mianserin. Receptor proteins were filtered and washed, the filters were then counted to determine [^3H]Mesulergine specifically bound. Compounds were screened at 1 μM or lower, using 1% DMSO as vehicle. Biochemical assay results are presented as the percent inhibition of specific binding in Table 4.

[2] = biological target: T2, human recombinant dopamine D2L receptor (Homo sapiens, UniProt P14416); assay: Dopamine D2L radioligand binding ([3H]Spiperone); conditions: compound at 1 μM; read-out: Percentage inhibition of ligand binding, Dopamine (1 μM) D2L
T2 construct: expressed in transfected cells; host or cells: CHO
T2 sequence (P14416 whole entry): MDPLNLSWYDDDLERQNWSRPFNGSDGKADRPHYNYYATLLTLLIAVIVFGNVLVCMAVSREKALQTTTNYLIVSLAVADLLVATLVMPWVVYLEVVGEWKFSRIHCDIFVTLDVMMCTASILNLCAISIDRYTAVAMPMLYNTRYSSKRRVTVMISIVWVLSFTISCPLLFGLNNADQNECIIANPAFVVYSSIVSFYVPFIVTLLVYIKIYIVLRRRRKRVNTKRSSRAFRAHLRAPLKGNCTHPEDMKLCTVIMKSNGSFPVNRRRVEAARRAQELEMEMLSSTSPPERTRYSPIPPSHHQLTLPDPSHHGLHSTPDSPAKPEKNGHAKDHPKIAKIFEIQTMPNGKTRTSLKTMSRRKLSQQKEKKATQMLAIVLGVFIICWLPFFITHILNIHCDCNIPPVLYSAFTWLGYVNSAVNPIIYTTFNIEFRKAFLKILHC
Protocol: To evaluate in radioligand binding assays the activity of compounds of the invention, human recombinant dopamine D2L receptor expressed in Chinese hamster ovary (CHO) cells (Grandy, D. et al, Proc. Natl. Acad. Sci. USA. 86:9762, 1989; Hayes, G. et al, Mol. Endocrinol. 6:920, 1992) in a modified Tris-HCl buffer (50 mM Tris-HCl, pH 7.4, 1.4 mM Ascorbic Acid, 0.001% BSA, 150 mM NaCl) was used. Compounds of the invention were incubated with 0.16 nM [^3H]Spiperonefor 120 min at 25° C. Non-specific binding was estimated in the presence of 10 μM Haloperidol. Receptor proteins were filtered and washed, the filters were then counted to determine [^3H]Spiperone specifically bound. Compounds were screened at 1 μM or lower, using 1% DMSO as vehicle. Biochemical assay results are presented as the percent inhibition of specific binding in Table 3.

[3] = biological target: T3, human recombinant serotonin (5-Hydroxytryptamine) 5-HT6 receptor (Homo sapiens, UniProt P50406); assay: Serotonin 5-HT6 radioligand binding ([3H]LSD); conditions: compound at 0.1 μM; read-out: Percentage inhibition of ligand binding, Serotonin (0.1 μM) 5-HT6
T3 construct: expressed in transfected cells; host or cells: HeLa
T3 sequence (P50406 whole entry): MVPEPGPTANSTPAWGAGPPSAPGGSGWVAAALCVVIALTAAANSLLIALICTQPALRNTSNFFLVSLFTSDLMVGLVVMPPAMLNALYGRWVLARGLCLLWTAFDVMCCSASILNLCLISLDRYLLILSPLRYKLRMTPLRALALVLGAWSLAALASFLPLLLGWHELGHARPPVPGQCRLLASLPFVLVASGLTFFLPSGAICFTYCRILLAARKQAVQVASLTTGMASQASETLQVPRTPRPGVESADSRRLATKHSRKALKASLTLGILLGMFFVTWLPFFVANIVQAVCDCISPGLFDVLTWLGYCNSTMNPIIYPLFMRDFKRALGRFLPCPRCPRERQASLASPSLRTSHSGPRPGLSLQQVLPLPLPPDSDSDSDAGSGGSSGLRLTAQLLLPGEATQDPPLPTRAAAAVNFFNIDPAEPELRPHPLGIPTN
Protocol: To evaluate in radioligand binding assays the activity of compounds of the invention, human recombinant serotonin (5-Hydroxytryptamine) 5-HT6 receptor expressed in human HeLa cells (Monsma, F. Jr. et al, Mol. Pharmacol. 43:320, 1993) in a modified Tris-HCl buffer (50 mM Tris-HCl, pH 7.4, 150 mM NaCl, 2 mM Ascorbic Acid, 0.001% BSA) was used. Compounds of the invention were incubated with 1.5 nM [3H]Lysergic acid diethylamide (LSD) for 120 min at 37° C. Non-specific binding was estimated in the presence of 5 μM Serotonin (5-HT). Receptor proteins were filtered and washed, the filters were then counted to determine [3H]LSD specifically bound. Compounds were screened at 1 μM or lower, using 1% DMSO as vehicle. Biochemical assay results are presented as the percent inhibition of specific binding in Table 4.

[4] = biological target: T4, human recombinant serotonin (5-Hydroxytryptamine) 5-HT7 receptor (Homo sapiens, UniProt P34969); assay: Serotonin 5-HT7 radioligand binding ([3H]LSD); conditions: compound at 0.1 μM; read-out: Percentage inhibition of ligand binding, Serotonin (0.1 μM) 5-HT7
T4 construct: expressed in transfected cells; host or cells: CHO
T4 sequence (P34969 whole entry): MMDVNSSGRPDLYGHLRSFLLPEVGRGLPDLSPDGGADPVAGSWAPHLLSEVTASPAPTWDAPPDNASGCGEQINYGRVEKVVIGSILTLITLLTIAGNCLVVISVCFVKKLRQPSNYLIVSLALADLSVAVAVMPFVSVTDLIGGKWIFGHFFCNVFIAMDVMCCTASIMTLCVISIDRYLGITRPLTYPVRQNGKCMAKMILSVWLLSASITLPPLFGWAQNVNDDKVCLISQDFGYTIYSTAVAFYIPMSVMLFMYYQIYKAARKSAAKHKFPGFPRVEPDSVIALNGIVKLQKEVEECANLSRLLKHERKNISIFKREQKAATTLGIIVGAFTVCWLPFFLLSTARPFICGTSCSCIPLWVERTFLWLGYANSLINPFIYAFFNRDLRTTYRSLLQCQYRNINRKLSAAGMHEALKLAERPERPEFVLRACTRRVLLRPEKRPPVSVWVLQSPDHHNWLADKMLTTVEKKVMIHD
Protocol: To evaluate in radioligand binding assays the activity of compounds of the invention, human recombinant serotonin (5-Hydroxytryptamine) 5-HT7 receptor expressed in Chinese hamster ovary (CHO) cells (Roth, B. et al, J. Pharmacol. Exp. Ther. 268:1403, 1994; Shen, Y. et al, J. Biol. Chem. 268:18200, 1993) in a modified Tris-HCl buffer (50 mM Tris-HCl, pH 7.4, 10 mM MgCl2, 0.5 mM EDTA) was used. Compounds of invention were incubated with 5.5 nM [^3H] Lysergic acid diethylamide (LSD) for 2 h at 25° C. Non-specific binding was estimated in the presence of 10 μM Serotonin (5-HT). Receptor proteins were filtered and washed, the filters were then counted to determine [^3H]LSD specifically bound. Compounds were screened at 1 μM or lower, using 1% DMSO as vehicle. Biochemical assay results are presented as the percent inhibition of specific binding in Table 4.

[5] = biological target: T5, human recombinant serotonin (5-Hydroxytryptamine) 5-HT2A receptor (Homo sapiens, UniProt P28223); assay: Serotonin 5-HT2A radioligand binding ([3H]Ketanserin); conditions: compound at 0.1 μM; read-out: Percentage inhibition of ligand binding, Serotonin (0.1 μM) 5-HT2A
T5 construct: expressed in transfected cells; host or cells: CHO-K1
T5 sequence (P28223 whole entry): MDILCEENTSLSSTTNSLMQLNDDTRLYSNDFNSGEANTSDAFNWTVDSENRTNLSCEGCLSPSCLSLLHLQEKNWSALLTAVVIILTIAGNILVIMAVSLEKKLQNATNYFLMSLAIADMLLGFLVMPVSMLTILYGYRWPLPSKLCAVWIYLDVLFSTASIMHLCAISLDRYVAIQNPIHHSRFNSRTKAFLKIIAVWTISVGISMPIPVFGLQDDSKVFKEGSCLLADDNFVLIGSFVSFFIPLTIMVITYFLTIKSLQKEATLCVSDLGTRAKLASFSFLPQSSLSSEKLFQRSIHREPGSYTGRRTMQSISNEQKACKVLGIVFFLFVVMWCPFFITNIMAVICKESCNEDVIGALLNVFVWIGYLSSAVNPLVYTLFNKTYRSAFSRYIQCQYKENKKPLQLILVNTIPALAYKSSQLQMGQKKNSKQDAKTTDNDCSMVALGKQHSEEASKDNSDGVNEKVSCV
Protocol: To evaluate in radioligand binding assays the activity of compounds of the invention, human recombinant serotonin (5-Hydroxytryptamine) 5-HT2A receptor expressed in Chinese hamster ovary (CHO) K1 cells (Bonhaus, D. et al, Br. J. Pharmacol. 115:622, 1995; Saucier, C. et al, J. Neurochem. 68:1998, 1997) in a 50 mM Tris-HCl buffer, pH 7.4, was used. Compounds of the invention were incubated with 0.5 nM [^3H]Ketanserin for 60 min at 25° C. Non-specific binding was estimated in the presence of 1 μM Mianserin. Receptor proteins were filtered and washed, the filters were then counted to determine [^3H]Ketanserin specifically bound. Compounds were screened at 1 μM or lower, using 1% DMSO as vehicle. Biochemical assay results are presented as the percent inhibition of specific binding in Table 4.

[6] = biological target: T6, human recombinant histamine H1 receptor (Homo sapiens, UniProt P35367); assay: Histamine H1 radioligand binding ([3H]Pyrilamine); conditions: compound at 1 μM; 1.2 nM [3H]Pyrilamine; read-out: Binding data (Percentage inhibition) Histamine H1 (1 μM)
T6 construct: expressed in transfected cells; host or cells: CHO-K1
T6 sequence (P35367 whole entry): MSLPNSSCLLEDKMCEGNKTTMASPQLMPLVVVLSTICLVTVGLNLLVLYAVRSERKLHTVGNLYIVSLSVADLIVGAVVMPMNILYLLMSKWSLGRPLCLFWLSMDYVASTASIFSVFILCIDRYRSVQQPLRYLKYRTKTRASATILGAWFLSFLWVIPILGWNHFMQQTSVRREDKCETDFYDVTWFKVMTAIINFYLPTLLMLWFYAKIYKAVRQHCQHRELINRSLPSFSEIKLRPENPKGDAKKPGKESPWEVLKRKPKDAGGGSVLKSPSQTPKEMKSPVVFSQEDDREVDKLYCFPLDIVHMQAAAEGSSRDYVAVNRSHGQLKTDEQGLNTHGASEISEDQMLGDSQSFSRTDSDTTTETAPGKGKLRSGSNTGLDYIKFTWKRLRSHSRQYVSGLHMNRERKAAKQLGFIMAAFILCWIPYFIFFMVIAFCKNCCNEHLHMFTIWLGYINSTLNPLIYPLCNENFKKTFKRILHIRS
Protocol: To evaluate in radioligand binding assays the activity of compounds of the invention, human recombinant histamine H1 receptor expressed in Chinese hamster ovary (CHO) K1 cells (De Backer, M. et al, Biochem. Biophys. Res. Comm. 197(3):1601, 1993) in a modified Tris-HCl buffer (50 mM Tris-HCl, pH 7.4, 2 mM MgCl2, 100 mM NaCl, 250 mM Sucrose) was used. Compounds of the invention were incubated with 1.2 nM [^3H]Pyrilamine for 180 min at 25° C. Non-specific binding was estimated in the presence of 1 μM Pyrilamine. Receptor proteins were filtered and washed, the filters were then counted to determine [^3H]Pyrilamine specifically bound. Compounds were screened at 1 μM or lower, using 1% DMSO as vehicle. Biochemical assay results are presented as the percent inhibition of specific binding in Table 2.

Row | SMILES | inhibition at 0.1 µM [1] [%] | inhibition at 1 µM [2] [%] | inhibition at 0.1 µM [3] [%] | inhibition at 0.1 µM [4] [%] | inhibition at 0.1 µM [5] [%] | inhibition at 1 µM [6] [%]
1 | CN1CCc2[nH]c3c(N(C)Cc4ccccc4)cccc3c2C1 [Compound 1, benzyl-methyl-(2-methyl-2,3,4,5-tetrahydro-1H-pyrido[4,3-b]indol-6-yl)-amine] | 55 | 21 | 44 | 9 | 73 | 6
2 | Cc1cc(CCc2ccc(C)nc2)c2[nH]c3c(c2c1)CN(C)CC3 [Compound 2] | 36 | 6 | 4 | 17 | 6 | 58
3 | CN1CCc2[nH]c3c(NCc4ccccc4)cccc3c2C1 [Compound 3] | 41 | 19 | 13 | 14 | 40 | 14
4 | CN1CCc2[nH]c3c(NCc4ccncc4)cccc3c2C1 [Compound 4] | 7 | 5 | 2 | -10 | -7 | 15
5 | Cc1cc(C#Cc2ccncc2)c2[nH]c3c(c2c1)CN(C)CC3 [Compound 5] | 45 | 10 | 30 | 45 | 54 | 17
6 | Cc1cc(C#Cc2ccc(C)nc2)c2[nH]c3c(c2c1)CN(C)CC3 [Compound 6, 2,8-dimethyl-6-((6-methylpyridin-3-yl)ethynyl)-2,3,4,5-tetrahydro-1H-pyrido[4,3-b]indole] | 55 | 7 | 24 | 43 | 41 | 16

Reference: patent US9034865B2, “Pyrido [4,3-B] indole and pyrido [3,4-B] indole derivatives and methods of use” (Medivation Technologies, Inc., priority 2010, dated 2015)
